Here are results for five molecules from PMC9909651 (Acta Pharmacologica Sinica, 2023).

In assay [1] the target is VP30/NP interface (VP30_110–272 protein, NP-FITC peptide) (Zaire ebolavirus, UniProt Q05323). The assay can be described thus: biochemical. The format is binding, Ebola virus.
The target in assay [2] is T1, VP30_110–272 protein (Zaire ebolavirus, UniProt Q05323). Description: biochemical. Format: binding, Ebola virus.
Assay [3] has as its target T1, VP30_110–272 protein. The format is binding, Ebola virus.
Assay [4] relates to EBOV minigenome in Huh7-4P cells. Format: cell-based, Ebola virus.
For assay [5] the test system is unchanged. Format: cell-based, Ebola virus. This is another data set of the same source.
Another assay concerns the target VP30 protein (Zaire ebolavirus, UniProt Q05323). Format: binding, Ebola virus.
For assay [6], the target named is T2, Ebola virus VP30 110-272 protein (MBP tag removed) (Ebola virus (EBOV)), Q05323.
T2 chain: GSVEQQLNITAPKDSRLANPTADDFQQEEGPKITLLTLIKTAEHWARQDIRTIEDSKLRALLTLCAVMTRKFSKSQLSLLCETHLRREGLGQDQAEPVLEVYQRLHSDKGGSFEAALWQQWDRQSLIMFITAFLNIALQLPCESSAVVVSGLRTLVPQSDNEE
Description: fluorescence polarisation.

Assay [7] has as its target NP-FITC (NP-derived VP30-binding peptide labelled with FITC) (Ebola virus (EBOV)). Description: fluorescence polarisation. (In general: In fluorescence polarisation assays a small probe gives low polarisation when free and higher when bound to something large.)

“Also recorded” adds a separate entry of the source.

Regarding `O=C(O)c1cnc(O)nc1O` [2,4-dihydroxypyrimidine-5-carboxylic acid], the “competitive FP assay, result in words” value in assay [1] is reported as “failed in the FP concentration gradient experiment”.

As to `CCCCCCCCCCCC1=C(O)C(=O)C=C(O)C1=O` [Embelin], the IC50 in assay [1] (IC50, competitive FP assay) is 33.2 µM. On VP30_110–272 protein [2], this molecule showed a Kd of 4.62 µM. Moreover, the “effect on stability / melting temperature (Tm) of VP30, TSA” value at VP30_110–272 protein [3] is “can specifically bind to VP30 and change its melting temperature Tm; also recorded: increased the stability of VP30 at pH 6.5, 7.0, 7.5 and 8.0”.

Turning to `Cc1cc(SCc2sc(-c3ccc(C(F)(F)F)c(F)c3)nc2C)ccc1OCC(=O)O` [GW0742], in assay [4], the “antiviral activity in MG assay, in words” value was “good antiviral activity”. In addition, the “synergistic effect, in words” value in assay [5] is listed as “does not exhibit obvious synergistic effects”. In addition, the “binding to VP30 already bound to Embelin or 8-gingerol, synergy SPR” value at VP30 protein is listed as “a reduction in binding was observed”.

The molecule PTVAPPAPVYR (modifications not checked) [unlabeled NP peptide (NP-derived VP30-binding peptide)] came in with an IC50 in assay [6] of 0.33 µM.

B1: Ebola virus VP30 110-272 protein (MBP tag removed), Q05323 110-272 (domain or fragment)
chain: GSVEQQLNITAPKDSRLANPTADDFQQEEGPKITLLTLIKTAEHWARQDIRTIEDSKLRALLTLCAVMTRKFSKSQLSLLCETHLRREGLGQDQAEPVLEVYQRLHSDKGGSFEAALWQQWDRQSLIMFITAFLNIALQLPCESSAVVVSGLRTLVPQSDNEE
In the case of B1, the IC50 in assay [7] amounted to 3.07 µM.

The term IC50 denotes the concentration that inhibits the measured activity by half. The low end stands for greater potency, the high end for weaker potency. For orientation: Kd means a measure of binding affinity in units of concentration.
